Results reported in patent US11752103B2, “Tramadol hydrochloride solution” (Athena Bioscience, LLC, priority 2019, dated 2023).
Structures can show the parent of a compound that is named as a salt.

Experiments:
[1] = Physicochemical data of tramadol hydrochloride
Experimental: Therefore, the Ex. 2 solution was evaluated for further studies.

μ-opioid receptors = settings: times more potent than tramadol; cited from earlier work
[2] = animal models; times more potent than tramadol; cited from earlier work

Row | SMILES | pH of tramadol hydrochloride [1] | pKa [1] | solubility ([1]; pH of about 4.5) | potency in μ-opioid binding relative to tramadol (μ-opioid receptors) | potency in producing analgesia relative to tramadol [2]
1 | COc1cccc(C2(O)CCCCC2CN(C)C)c1 (mixture of isomers) [tramadol hydrochloride, (±) cis-2-[(dimethylamino)methyl]-1-(3-methoxyphenyl)cyclohexan-1-ol, hydrochloride] | about 5.3 | 9.8 | freely soluble |  | 
2 | CN(C)C[C@@H]1CCCC[C@@]1(O)c1cccc(O)c1 (relative stereo) [ODMT, 3-[cis-2-[(dimethylamino)methyl]-1-hydroxycyclohexyl]-phenol] |  |  |  | 200 times | up to 6 times
